Assay results as given in patent publication US11779565B2, “Small organic molecules for use in the treatment of neuroinflammatory disorders” (THE MEDICAL RESEARCH, INFRASTRUCTURE AND HEALTH SERVICES …, priority 2017, dated 2023).

What was measured:
[1] = biological target: T1, BMP-2 (Homo sapiens, UniProt P12643); assay: ATDC5 cell based HTS bioassay: ALP production stimulated by BMP-2 and heparin; set-up: species or system mouse; conditions: for IC50: inhibition of BMP-2-stimulated ALP in ATDC5 cells, 48 hours, tested at 0.62-10 μM; for inhibition at 2.5 µM: ATDC5 cells, read-out: inhibition of BMP-2 (ALP induction)
T1 construct: purchased R&D Systems
T1 sequence (P12643 283-396): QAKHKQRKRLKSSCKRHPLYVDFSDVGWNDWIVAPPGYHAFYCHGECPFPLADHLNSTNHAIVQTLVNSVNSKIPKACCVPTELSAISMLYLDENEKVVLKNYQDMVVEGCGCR
Experimental: (§1) Poly-L-lysine (Sigma-Aldrich) was added to 384-well plates and was removed after 30 min of incubation at RT. An assay medium containing DMEM/F12, 2% FBS, 100 units/ml penicillin, […] streptomycin (Biological industries) was added to each well. […] ATDC5 cells (Sigma-Aldrich) were harvested, re-suspended in assay medium and added to a final concentration of 2000 cells/well. Finally, heparin (Sigma-Aldrich) was added to a final concentration of 2 μg/ml. The cells were incubated for 48 hours at 37° C. with 5% CO2 in a humidified chamber in the presence or absence of potential small molecule inhibitors of BPM-2. After incubation, ALP levels and cell viability were determined using a completely automated protocol. Cells were washed with PBS, lysed using a lysis buffer containing 0.2% Triton X-100 in PBS supplemented with a protease inhibitor cocktail (Sigma-Aldrich) and incubated for 25 min at RT. ALP level was then determined by addition of CDP-Star® chemiluminescent substrate (Sigma-Aldrich) and measurement of luminescence after incubation for 25 min at RT in the dark. Cell viability was finally determined by addition of CellTiter-Glo® reagent (Biological Industries) and luminescence measurement after 10 min of incubation.
An ATDC5 cell based assay for assessing structure-function relationship of BMP-2 and BMP receptor IA was originally described in Keller et al (Nature Structural & Molecular Biology 2004 11, 481-488). In order to screen a large volume of potential therapeutic agents the ATDC5 cell based bioassay for detecting BMP inhibition was adapted for use in high throughput screening. The bioassay is based on the stimulation of alkaline phosphatase (ALP) production in mouse ATDC5 cells by administration of BMP-2 and heparin, and measurement of ALP levels in the presence of the potential inhibitors. […] This was achieved by using CellTiter-Glo® Luminescent Cell Viability Assay for assessing the cells' viability after the luminescent signal by CDP-Star® has faded. The simultaneous assessment of both ALP production and cells' viability was necessary since potentially toxic tested small molecules may lead to reduced ALP levels by cellular cytotoxicity rather than by interference with BMP-2 signaling. […] Particulars of the bioassay are detailed in the Experimental procedures section above.
A library of small molecules (SM) was screened using the High Throughput Screening bioassay described above. About 7600 SMs were screened, from the Maybridge library, which consists of organic “drug-like” compounds, using the pre-plated HitFinder™ Collection. […] The SM were tested at various concentrations, i.e. at 0.62 μM, 1.25 μM, 2.5 μM, 5 μM and 10 μM.

[2] = biological target: T2, BMP-4 (Homo sapiens, UniProt P12644); assay: ATDC5 bioassay with rhBMP-4 stimulation instead of rhBMP-2 (ALP); format: cell-based, mouse; conditions: ATDC5 cells; for effect on ALP production induced by BMP-4 compared with BMP-2: 2.5 μM and 5 μM; for inhibition at 2.5 µM: read-out: inhibition of BMP-4 (ALP induction)
T2 sequence (P12644 293-408): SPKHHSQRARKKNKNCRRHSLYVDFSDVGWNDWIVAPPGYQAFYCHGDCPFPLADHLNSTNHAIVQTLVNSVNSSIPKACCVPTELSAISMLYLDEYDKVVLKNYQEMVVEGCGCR
Experimental: as §1
Due to the high homology between BMP-2 and BMP-4, the ability of the SMs to inhibit BMP-2 and BMP-4 signaling (similar to the effect of the anti-BMP-2/4 mAb) was also examined.

[3] = tested on: RR-EAE mice; assay: RR-EAE model in SJL mice, clinical score; format: in vivo; conditions: for EAE clinical score: 10 mg/kg/day i.p.
Experimental: RR-EAE was induced in SJL female mice (6-8 week old) by subcutaneous immunization (day 0) with 100 μg/mouse proteolipid protein peptide (PLP139-151, synthesized by Sigma-Aldrich) in 0.1 ml PBS. The peptide was emulsified in an equal volume of Complete Freund's Adjuvant (CFA, from DIFCO) containing 500 μg Mycobacterium tuberculosis H37RA (MT, from DIFCO). The mice also received an intraperitoneal injection of 300 ng pertussis toxin (PTX, from Sigma-Aldrich) in 0.2 ml PBS. A second injection of PTX (300 ng/mouse) was given 48 h later.
Mice were monitored for symptoms of RR-EAE and were scored as follows: “0” for no disease; “1”, tail paralysis; “2”, hind limb weakness; “3”, hind limb paralysis; “4”, hind limb and forelimb weakness/paralysis; “5”, moribund.
The effect of the small molecule inhibitors that were identified in Example 1 above was further tested in vivo using the experimental autoimmune encephalomyelitis (EAE) model in SJL mice. EAE serves as a model for Relapsing/Remitting multiple sclerosis (MS). EAE was induced as described in the experimental procedures section. SMs 1-9 or vehicle alone (5% DMSO in PBS) were daily administered by intraperitoneal injections of 250 μg/mouse (10 mg/kg/day), starting from day 9 post immunization, for the next 30 days. The animals were monitored until day 45 post-induction for symptoms of EAE and scored as follows: 0=no disease, 1=tail paralysis, 2=hind limb weakness, 3=hind limb paralysis, 4=hind limb plus forelimb paralysis, and 5=moribund.
Experiments were repeated with the 4 above-mentioned molecules SM1, SM6, SM7 & SM9. The experiment was conducted under similar conditions as the previous one, except that two dosages of the molecules were administered: a dose of 10 mg/kg and dose of 20 mg/kg, namely 250 μg/mouse and 500 μg/mouse on days 9-38 (see FIG. 4).

[4] = first experiment, 10 mg/kg/day i.p. from day 9 for 30 days, vs. vehicle
[5] = second experiment, 10 and 20 mg/kg, vs. vehicle
[6] = second experiment, high dosage 20 mg/kg, days 9-38, vs. vehicle
[7] = second experiment, low dosage 10 mg/kg, days 9-38, vs. vehicle
[8] = first experiment, day 21 post immunization (vehicle 1.1±0.3)

Compound | IC50 [1] [µM] | effect on ALP production induced by BMP-4 compared with BMP-2 [2] | effect on EAE clinical score [3, 4] | EAE clinical score ([3]; first experiment, day 19 post immunization (vehicle 1.1±0.3)) | EAE clinical score ([3]; first experiment, day 27) | number of mice with moderate-severe EAE (clinical score at least 2) [3, 5] | effect on EAE clinical score [3, 6] | effect on EAE clinical score [3, 7] | effect on EAE clinical score ([3]; second experiment, 10 and 20 mg/kg, days 9-38) | number of mice with a more severe EAE ([3]; second experiment, during the second relapse (vehicle 5-6 mice)) | number of mice with a more severe EAE ([3]; second experiment, during the third relapse (vehicle 8-9 mice)) | inhibition at 2.5 µM [1] [%] | inhibition at 2.5 µM [2] [%] | EAE clinical score [3, 8] | mice died by the end of the experiment ([3]; second experiment, high dose group 20 mg/kg, day 48) | mice died by the end of the experiment ([3]; second experiment, low dose group 10 mg/kg, day 48, n=14) [mice]
COC(=O)c1sccc1N/N=C(\C#N)S(=O)(=O)c1cccs1 [SM1, Methyl 3-[(2E)-2-[cyano(thiophen-2-ylsulfonyl)methylidene]hydrazinyl]thiophene-2-carboxylate] | 2.6 | same effect | beneficial effect | 0.5±0.2 | 0.3±0.3 | beneficial effect | trend for amelioration | significant beneficial effect | – | – | – | – | – | – | – | –
O=C(Nc1cccc(C(F)(F)F)c1)c1ccc([N+](=O)[O-])o1 [SM6, N2-[3-(trifluoromethyl)phenyl)-5-nitro-2-furamide] | 9.7 | same effect | did not show any beneficial effect | – | – | reduced | – | – | milder and not significant | 2-3 mice | 5-7 mice | – | – | – | – | –
N#Cc1c(O)nsc1Nc1ccccc1C(F)(F)F [SM7, 3-hydroxy-5-[2-(trifluoromethyl)aniline]isothiazole-4-carbonitrile] | 2.2 | inhibit BMP-2 slightly more than BMP-4 | beneficial effect | – | – | – | – | – | – | – | – | 47.3 | 29.8 | 0.6±0.1 | all of the mice died | 8
CS(=O)(=O)c1noc(-c2ccc(Cl)cc2)c1C#N [SM9, 5-(4-chlorophenyl)-3-methylsulfonyl-1,2-oxazole-4-carbonitrile] | 4.4 | inhibit BMP-2 slightly more than BMP-4 | beneficial effect | – | – | beneficial effect | ameliorated EAE | ameliorated EAE | – | – | – | 29.1 | 18.9 | 0.8±0.3 | – | –
